# Experimental data reported in US6835382B2, “Ii peptide therapeutics to enhance antigen presentation” (University of Massachusetts, priority 1996, dated 2004).
# Positions of bridges follow the written chain, without caps; N, C: chain ends. Non-standard residues stand in square brackets, D forms with d. No end group written: not given here. hArg = N=C(N)NCCCC[C@H](N)C(=O)O; Cit = NC(=O)NCCC[C@H](N)C(=O)O
# Target: T1, murine E^d MHC class II allele (Mus musculus, UniProt P01904+P01915)
# T1 sequence (P01904 26-255): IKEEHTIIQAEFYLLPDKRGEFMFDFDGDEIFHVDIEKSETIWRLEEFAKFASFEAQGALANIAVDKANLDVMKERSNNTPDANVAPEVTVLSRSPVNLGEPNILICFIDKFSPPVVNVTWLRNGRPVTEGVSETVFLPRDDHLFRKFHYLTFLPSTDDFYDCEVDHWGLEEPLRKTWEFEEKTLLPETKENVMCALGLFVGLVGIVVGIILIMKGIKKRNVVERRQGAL
# T1 sequence (P01915 27-264 limits assumed): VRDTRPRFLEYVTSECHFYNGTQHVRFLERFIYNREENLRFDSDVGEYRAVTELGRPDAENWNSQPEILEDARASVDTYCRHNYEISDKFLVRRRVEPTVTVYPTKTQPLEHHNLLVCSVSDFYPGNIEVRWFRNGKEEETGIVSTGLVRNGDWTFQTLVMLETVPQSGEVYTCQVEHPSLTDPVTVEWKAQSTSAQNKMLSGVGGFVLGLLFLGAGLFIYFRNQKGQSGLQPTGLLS
# Assay: processed antigen assay, E^d allele (APC pulsed with native HEL)
# Assay type: cell-based
# Design: The A20 and CH27 B cell lymphoma lines express H-2^d and H-2^k alleles, respectively; endogenous in cells; host or cells: A20 B cell lymphoma (mitomycin C-treated or paraformaldehyde-fixed)
# Details: Table 31; native HEL prepulse 10 μM; AE peptide 64 μM; supernatant dilution 1:4
# Protocol: In a third type of assay, the “processed antigen assay”, certain of the AE101 series of peptides inhibit stimulation of specific T cell hybridomas by antigenic peptides which are derived from the endogenous processing of a native protein antigen. This assay, which is related to the peptide prepulse assay, is performed by incubating APC with native protein antigen for 8 h, after which the pulsed APC are washed and treated with mitomycin C. Those pulsed APC are then combined with AE101 series peptides and T cell hybridomas and are incubated for 24 h. After that incubation, an aliquot of the culture supernatant is transferred to a second culture to measure T cell stimulation, as reflected in the effect of released interleukins on the growth of an interleukin-dependent, indicator cell line. During the 8 h incubation with native protein antigen, the protein antigen is taken into the APC. The native protein enters the processing pathway within the APC, where it is enzymatically cleaved to peptide fragments. Those peptide fragments with high affinity for the particular MHC class II molecules produced by the APC form antigenic peptide/MHC class II complexes which are transported to the cell surface. At the cell surface, the MHC class II molecules are contacted by the AE101 peptides, which cause the release of the antigenic peptide by the same mechanism proposed for the “peptide prepulse” assay above.
# The “processed antigen assay” was carried out under essentially the same conditions as the “peptide prepulse assay”, with the following modifications. Untreated APC were incubated at 1×10^6/mL in 24-well plates (1 mL/well) with native protein antigen for 8 h. Following that incubation, the pulsed APC were washed, treated with mitomycin C, and washed again. AE101 series peptide was added at 64 μM, 16 μM, 4 μM, and 1 μM concentrations for 24 h in the presence of the T cell hybridoma specific for the antigenic peptide. Interleukin release from these cultures was measured by proliferation of HT-2 cells to interleukins in supernatants transferred from the primary culture. The baseline T cell response was measured by culturing T hybridoma cells with the native antigen-prepulsed APC in the absence of AE101 series peptides.
# The “processed antigen assay” was carried out under essentially the same conditions as the “peptide prepulse” assay, with the following modifications. Untreated APC were incubated at 1×10^6/mL in 24-well plates (1 mL/well) with native protein antigen for 8 h. Following incubation, the pulsed APC were washed, treated with mitomycin C, and were washed again. The assay conditions were then as described for “peptide prepulse” above. The baseline T cell response was measured by culturing T hybridoma cells with the native antigen-prepulsed APC in the absence of AE101 peptides.
# Table 2.9: Activities of substitution series at Leucine^80 in AE114 in a processed antigen assay. […] The results in this assay constitute, relatively, a mirror image of the result in the simultaneous assay (Example 1, Table 7) and parallel those of the antigenic peptide prepulse assay (Example 5, Table 24). Untreated APC were incubated with native HEL, instead of antigenic peptide, for 8 h. After incubation, the pulsed cells were washed and mitomycin C treated before being cocultured with AE-peptides and T cell hybridomas. Wells containing only T cells and native HEL-prepulsed APC were used to determine the Baseline response, or 1, in the absence of AE peptides. The concentration of AE peptide used was 64 μM for these assays. The supernatant dilutions used in the HT-2 cell assay were 1:4 (first value) and 1:8 (second value).
row,Substance,"T cell response relative to baseline (None = 1.00), E^d"
1,Ac-A[Cit]NKNPK-NH2 [AE351],0.87
2,Ac-LR Orn K HArg PK-NH2 [AE340],0.16
3,Ac-LRMKNPF-NH2 [AE350],0.56

# Same assay, conditions: Table 32; native HEL prepulse 20 μM; AE peptide 64 μM; supernatant dilution 1:4
row,Substance,"T cell response relative to baseline (None = 1.0), E^d"
1,Ac-FK HArg MYP Cit-NH2 [AE371],0.61
2,Ac-LK HArg KYPK-NH2 [AE363],0.75
3,Ac-LKMKYPK-NH2 [AE362],0.58
4,Ac-LR HArg KYP Cit-NH2 [AE366],0.53
5,Ac-LR HArg MYPK-NH2 [AE365],0.65
6,Ac-LRLKYPN-NH2 [AE368],0.55
7,Ac-LRMKYPN-NH2 [AE370],0.55
8,Ac-LRMKYP[Cit]-NH2 [AE364],0.56
9,Ac-LRMMYP[Cit]-NH2 [AE367],0.69
10,Ac-L[hArg]LKYPK-NH2 [AE361],0.51
11,Ac-L[hArg]MKYPK-NH2 [AE360],0.64

# Same assay, conditions: Table 34; AE peptide 64 μM; native HEL 10 μM prepulse; supernatant 1:8
row,Substance,"Activity in processed antigen assay, E^d (baseline = 1.0)"
1,Ac-LRMKLPK (lactam 4-C) [AE382],0.61
2,"cyclic LRMKLPK (bridge (positions not given here); also: cyclic, ring type not given here) [AE381, “head-to-tail” cyclization from the amino-terminus to the carboxyl-terminus of AE114]",0.18
